Tests used:
lymphocytes = experiment: Study of Immune Function: lymphocyte blastogenesis, cattle (experiment 3); type: cell-based, castrated male cattle
plasma cortisol = experiment: Plasma cortisol in pigs after test meals; type: in vivo
Procedure: To determine if KIC could acutely alter cortisol concentrations, young pigs were fed meals supplemented with leucine or KIC and plasma cortisol was measured.
In experiment 1, sixteen female pigs weighing 20-30 kg were used. Seven days before study, catheters were surgically placed in the right atria for blood sampling. Animals were housed in individual cages during the recovery period and had free access to water. Preceding the experiment, animals were fed twice daily a basal diet (2% of body weight per feeding). The basal diet consisted of a corn-soybean mix, adequate in all minerals and vitamins and containing approximately 14% crude protein. Test meals were formulated by additions to a basal diet. Five animals received the basal diet (control); five animals received the leucine meal, which had 2% leucine added to the basal diet; and six animals received the KIC diet, which had 2% KIC (sodium salt equivalent to 1.7% free acid) added to the basel diet. Studies were begun between 0800 and 0900 h after a 24-hr fast. Basal blood samples were taken at -20, -10 and -5 min. Animals were then offered 100 g of their respective test meal (time 0). Pigs were included in the study only if they consumed the entire meal in the first 20 min. […] Plasma was separated, Trasylol (FBA Pharmaceuticals, New York, NY) added (50 ul/ml), and plasma stored at -70 C. until analyzed.
Cortisol was measured by coated tube kits (Gammacoat, Travenol-Genetech Diagnostics, Cambridge, MA). Leucine and KIC were measured by high pressure liquid chromatography. Crystalline leucine was obtained from Sigma Chemical (St. Louis, MO) and KIC-sodium was obtained from SOBAC (Paris, France). Statistical analysis of the individual pig responses was conducted on mean plasma concentrations before the meal (-20 to 0 min) and after the meal (120 to 240 min). When the overall treatment F-value was significant, differences between individual treatments were determined using the pooled SEM and a T-test.

[1] = Dairy Cattle Trial: nitrogen balance, milk production and composition; type: in vivo, Holstein and Brown Swiss cows (cattle)
Text: Eight Holstein and four Brown Swiss cows were assigned randomly (blocking for lactation number and breed) to either a control or treatment group. Four of the Holsteins and two of the Brown Swiss were in their first lactation and all cows were between 134-283 days into lactation (mid-lactation). Cows were milked twice daily (2:30 a.m. and 2:00 p.m.).
Cows were fed ad libitum a total mixed ration twice daily (7:30 a.m. and 5:30 p.m.) with feed refusals collected before the morning feeding. The diet consisted of 31% chopped alfalfa hay, 18% corn silage, and […] (as a % of the dry matter). The grain mix was calculated to contain 1.55 Mcal NE/kg dry matter and 16% crude protein. A major portion of the grain protein was from expeller processed soybean meal with higher than usual bypass characteristics. The cows were consuming protein in excess of their normal requirements. The grain ration contained an estimated 10% leucine (total protein basis), and the complete diet contained an estimated 9% leucine (total protein basis).
During the treatment period half the cows received Na-KIC at 0.75% of the diet dry matter. KIC was fed in a mixture which consisted of Na-KIC, corn gluten meal, hydrogenated soy oil and paraffin in a ratio of 2:1.0:0.1:0.1. The mixture was extruded and formed into crumbles. At least part of the KIC may have escaped rumen degradation with this treatment. Additionally, 100 units of tocopherol were added per gram of Na--KIC to prevent oxidation of KIC. Control animals were fed an equivalent amount of the same mixture but without KIC added.
During the first two weeks of the experiment (control period; designated weeks -2 and -1), all cows received the same diet. The trial period extended over the next three weeks (weeks 1, 2, 3) during which cows received either the KIC or control mix top-dressed on their diets twice per day (half the dose in the morning, half in the evening). Throughout the experiment, daily milk yield, milk composition, and feed consumption was measured for each cow. At the end of the control period and at the end of the treatment period, uninary catheters were inserted and total urine and fecal collections were made for 48 hrs. Results of production and nitrogen balance studies were analyzed statistically using each cow as her own control. The trial effect was measured by subtracting the average control period value from the value during the treatment period. ANOVA was used to detect differences between the KIC-fed and control groups.

[2] = Na-KIC 0.75% of diet dry matter, pre 186

CC(C)CC(=O)C(=O)O [KIC, alpha-ketoisocaproate]
BKG: background blastogenesis (lymphocytes; Exp. 3, oral coated 0.02% KIC (control 1410)): 1550 Counts/min per 2 × 10^5 cells
PWM: pokeweed mitogen-stimulated blastogenesis (lymphocytes; Exp. 3, oral coated 0.02% KIC (control 23100)): 27100 Counts/min per 2 × 10^5 cells
PHA: phytohemagglutinin-stimulated blastogenesis (lymphocytes; Exp. 3, oral coated 0.02% KIC (control 40500)): 43200 Counts/min per 2 × 10^5 cells
ConA: concanavalin A-stimulated blastogenesis (lymphocytes; Exp. 3, oral coated 0.02% KIC (control 40900)): 48800 Counts/min per 2 × 10^5 cells
BKG: background blastogenesis (lymphocytes; Exp. 3, oral coated 0.07% KIC (control 1410)): 2080 Counts/min per 2 × 10^5 cells
PWM: pokeweed mitogen-stimulated blastogenesis (lymphocytes; Exp. 3, oral coated 0.07% KIC (control 23100)): 38000 Counts/min per 2 × 10^5 cells
PHA: phytohemagglutinin-stimulated blastogenesis (lymphocytes; Exp. 3, oral coated 0.07% KIC (control 40500)): 74300 Counts/min per 2 × 10^5 cells
ConA: concanavalin A-stimulated blastogenesis (lymphocytes; Exp. 3, oral coated 0.07% KIC (control 40900)): 75400 Counts/min per 2 × 10^5 cells
BKG: background blastogenesis (lymphocytes; Exp. 3, oral coated 0.20% KIC (control 1410)): 1690 Counts/min per 2 × 10^5 cells
PWM: pokeweed mitogen-stimulated blastogenesis (lymphocytes; Exp. 3, oral coated 0.20% KIC (control 23100)): 30500 Counts/min per 2 × 10^5 cells
PHA: phytohemagglutinin-stimulated blastogenesis (lymphocytes; Exp. 3, oral coated 0.20% KIC (control 40500)): 56900 Counts/min per 2 × 10^5 cells
ConA: concanavalin A-stimulated blastogenesis (lymphocytes; Exp. 3, oral coated 0.20% KIC (control 40900)): 54400 Counts/min per 2 × 10^5 cells
decrease in cortisol concentration (plasma cortisol; 2% KIC, by 240-300 minutes after the meal, p<0.01): 40%
Plasma cortisol, Change (plasma cortisol; 2% in meal, control -0.09): -1.99 µg/dL
Plasma cortisol, Post (plasma cortisol; 2% in meal, pre: leucine 2.8, KIC 4.7, pooled SEM 0.49): 2.9 µg/dL
Feces output, Change ([1]; KIC group, control +1): -6 g N/day
Milk output, Change ([1]; KIC group, control +3): +9 g N/day
Urine output, Change ([1]; KIC group, control +15): 0 g N/day
Body storage (N balance), Change ([1]; KIC group, control +18): +26 g N/day
Feed intake, Change ([1]; KIC group, control +37): +28 g N/day
Milk fat yield, Change ([1]; KIC group, control +.00): +.09 kg/day
Milk fat percent, Change ([1]; KIC group, control +.03): +.21%
Milk protein percent, Change ([1]; KIC group, control +.13): +.11%
Milk yield, Change ([1]; KIC group, control -.13): +.97 kg/day
Milk protein percent, Post ([1]; Na-KIC 0.75% of diet dry matter, pre 3.35): 3.46%
Milk fat percent, Post ([1]; Na-KIC 0.75% of diet dry matter, pre 4.07): 4.27%
Milk yield, Post ([1]; Na-KIC 0.75% of diet dry matter, pre 23.0): 23.9 kg/day
Body storage (N balance), Post ([1]; Na-KIC 0.75% of diet dry matter, pre 34): 60 g N/day
Milk output, Post ([1]; Na-KIC 0.75% of diet dry matter, pre 131): 140 g N/day
Feces output, Post [1, 2]: 180 g N/day
Urine output, Post [1, 2]: 186 g N/day
Feed intake, Post ([1]; Na-KIC 0.75% of diet dry matter, pre 538): 566 g N/day
Milk fat yield, Post ([1]; Na-KIC 0.75% of diet dry matter, pre printed 92): 1.00 kg/day
milk fat yield increase ([1]; above controls, p<0.02): 10%
higher milk yields ([1]; vs control cows): +5%
higher percent milk fat ([1]; vs control cows, p<0.04): +4%
Body storage (N balance), % Change ([1]; vs control, NS): +24%
Body storage (N balance), KIC effect ([1]; vs control, NS): +8 g N/day
Feces output, % Change ([1]; vs control, NS): -4%
Feces output, KIC effect ([1]; vs control, NS): -8 g N/day
Feed intake, % Change ([1]; vs control, NS): -2%
Feed intake, KIC effect ([1]; vs control, NS): -9 g N/day
Milk output, % Change ([1]; vs control, NS): +5%
Milk output, KIC effect ([1]; vs control, NS): +6 g N/day
Milk protein percent, KIC effect ([1]; vs control, NS): -.03%
Urine output, % Change ([1]; vs control, NS): -85
Urine output, KIC effect ([1]; vs control, NS): -15 g N/day
Milk fat yield, % Change ([1]; vs control, p < .01): +10.4%
Milk fat yield, KIC effect ([1]; vs control, p < .01): +.09 kg/day
Milk fat percent, % Change ([1]; vs control, p < .04): +4.3%
Milk fat percent, KIC effect ([1]; vs control, p < .04): +.17%
Milk yield, % Change ([1]; vs control, p < .15): +5.1%
Milk yield, KIC effect ([1]; vs control, p < .15): +1.10 kg/day

From patent US4835185A, “Immunomodulator for improving commercial performance of domestic animals” (Iowa State University Research Foundation, Inc., priority 1987, dated 1989)
